According to US20240109853A1 (Shanghai Yao Yuan Biotechnology Co., Ltd., priority 2020, published 2024):

Tests used:
[1] = test system: innate immunity gene expression in kidney; assay: Inhibition of activated ALPK1 in kidney: innate immunity gene expression after ALPK1 agonist; type: in vivo, Sprague-Dawley (SD) rats; conditions: SD rats, 4, 10 or 25 mg/kg oral 2 hours prior to agonist ip, kidney 3 hours after agonist, RT-PCR
Protocol: FIG. 2: Treatment groups were administered 4, 10 or 25 mg/kg of the ALPK1 inhibitor A0176 2 hours prior to the agonist, D-glycero-D-manno-6-fluoro-heptose-1β-S-ADP.
To test the effects of the ALPK1 inhibitors on the expression of innate immunity genes activated upon ALPK1 activation, SD rats were orally administered ALPK1 inhibitors followed by activation of innate immunity genes by intraperitoneal administration of an ALPK1 agonist, D-glycero-D-manno-6-fluoro-heptose-1β-S-ADP. Kidney tissue was harvested and assayed for gene expression. Briefly, Twenty male Sprague-Dawley (SD) rats were randomly divided into five groups. The normal group was given vehicle (0.5% MC) orally. After 2 hours, PBS was given by ip injection. The control group was given vehicle (0.5% MC) orally. After 2 hours, D-glycero-D-manno-6-fluoro-heptose-1β-S-ADP (50 μpk) was given by ip injection. The other 3 groups were given the ALPK1 inhibitor A0176 (4, 10 and 25 mpk) orally. After 2 hours, D-glycero-D-manno-6-fluoro-heptose-1β-S-ADP (50 μpk) was given by ip injection. […] Quantitative PCR was conducted using AceQ qPCR SYBR Green Master Mix Kit (Vazyme, Nanjing, China) on the QuantStudio 5 applied biosystems (Thermo scientific, USA). The relative mRNA levels were calculated using the 2-ΔΔCT method, and HPRT was used as a reference for gene expression normalization. […]

[2] = test system: polymicrobial sepsis induced by cecal ligation and puncture; assay: Sepsis induced acute kidney injury model (cecal ligation and puncture, CLP); conditions: rat CLP, 20 mg/kg 2 hours prior to surgery; for kidney proinflammatory gene expression (IL6, TNFa, IL-1b, CCl2, KC): kidneys 24 hours post-surgery, Q-PCR; for survival: survival over 24 hours
Protocol: Survival was recorded over the following 24 hours.
24 hours post-surgery, the kidneys were collected for gene expression analysis by Q-PCR.
24 hours post-surgery, plasma MCP-1 concentration was measured by ELISA.
We used a rat CLP model to evaluate the effects of compounds described here on sepsis. Briefly, the rat cecum was ligated with sterile silk thread, and then cecum was punctured twice with a needle, gently squeezed to express a small amount of fecal material, then the abdominal incision was closed. […] In addition, at 24 hours post-surgery, the kidneys were collected for gene expression analysis by Q-PCR and plasma was collected for measurement of plasma MCP-1 concentrations by ELISA.

hALPK1-V1092A = hALPK1-V1092A (Homo sapiens (Human), UniProt Q96QP1, V1092A); assay: cell-based
Protocol: Accordingly, we used IL-8 secretion as an indicator of activated ALPK1 inhibition in cells expressing these mutations.
Transfection was performed according to manufacturer's protocols (Lipofectamine™ 3000, ThermoFisher). Transfected cells were selected, seeded onto 96-well plates and treated with serial dilutions of the test compounds for 6.5 hr. Following treatment, cell viability was determined using a luminescent cell viability assay (Cell Counting-Lite Assay or “CCL Assay” from Vazyme Biotech Co., Ltd.) and cell free supernatants were collected and analyzed for IL-8 protein by IL-8 ELISA as described above.
Fresh medium and compound were added at 18 hours. Cell viability and IL-8 secretion were determined 6 hours after the second addition of compound, using the CCL assay and IL-8 ELISA as described above.

[3] = test system: ALPK1-dependent NFκB reporter gene activation in HEK293 cells stably expressing an NF-kB reporter (G9 cells); assay: NFκB gene reporter alkaline phosphatase assay; type: cell-based; conditions: Homo sapiens, HEK293; read-out: NFkB assay IC50
Outline: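 HEK293 G9 cells stably carrying an NF-kB alkaline phosphatase reporter were seeded at 10,000 cells/well in Freestyle 293 medium and attached overnight. They were pretreated with serially diluted compound for 30 min, then stimulated with D-glycero-D-manno-6-fluoro-heptose-1β-S-ADP. Reporter phosphatase was read with pNPP; IC50 from logistic fit.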

ALPK1 = ALPK1 (Homo sapiens (Human), UniProt Q96QP1); assay: ALPK1 in vitro kinase assay (HTRF of TIFA phosphorylation); type: biochemical
Chain of ALPK1 (Q96QP1 whole entry): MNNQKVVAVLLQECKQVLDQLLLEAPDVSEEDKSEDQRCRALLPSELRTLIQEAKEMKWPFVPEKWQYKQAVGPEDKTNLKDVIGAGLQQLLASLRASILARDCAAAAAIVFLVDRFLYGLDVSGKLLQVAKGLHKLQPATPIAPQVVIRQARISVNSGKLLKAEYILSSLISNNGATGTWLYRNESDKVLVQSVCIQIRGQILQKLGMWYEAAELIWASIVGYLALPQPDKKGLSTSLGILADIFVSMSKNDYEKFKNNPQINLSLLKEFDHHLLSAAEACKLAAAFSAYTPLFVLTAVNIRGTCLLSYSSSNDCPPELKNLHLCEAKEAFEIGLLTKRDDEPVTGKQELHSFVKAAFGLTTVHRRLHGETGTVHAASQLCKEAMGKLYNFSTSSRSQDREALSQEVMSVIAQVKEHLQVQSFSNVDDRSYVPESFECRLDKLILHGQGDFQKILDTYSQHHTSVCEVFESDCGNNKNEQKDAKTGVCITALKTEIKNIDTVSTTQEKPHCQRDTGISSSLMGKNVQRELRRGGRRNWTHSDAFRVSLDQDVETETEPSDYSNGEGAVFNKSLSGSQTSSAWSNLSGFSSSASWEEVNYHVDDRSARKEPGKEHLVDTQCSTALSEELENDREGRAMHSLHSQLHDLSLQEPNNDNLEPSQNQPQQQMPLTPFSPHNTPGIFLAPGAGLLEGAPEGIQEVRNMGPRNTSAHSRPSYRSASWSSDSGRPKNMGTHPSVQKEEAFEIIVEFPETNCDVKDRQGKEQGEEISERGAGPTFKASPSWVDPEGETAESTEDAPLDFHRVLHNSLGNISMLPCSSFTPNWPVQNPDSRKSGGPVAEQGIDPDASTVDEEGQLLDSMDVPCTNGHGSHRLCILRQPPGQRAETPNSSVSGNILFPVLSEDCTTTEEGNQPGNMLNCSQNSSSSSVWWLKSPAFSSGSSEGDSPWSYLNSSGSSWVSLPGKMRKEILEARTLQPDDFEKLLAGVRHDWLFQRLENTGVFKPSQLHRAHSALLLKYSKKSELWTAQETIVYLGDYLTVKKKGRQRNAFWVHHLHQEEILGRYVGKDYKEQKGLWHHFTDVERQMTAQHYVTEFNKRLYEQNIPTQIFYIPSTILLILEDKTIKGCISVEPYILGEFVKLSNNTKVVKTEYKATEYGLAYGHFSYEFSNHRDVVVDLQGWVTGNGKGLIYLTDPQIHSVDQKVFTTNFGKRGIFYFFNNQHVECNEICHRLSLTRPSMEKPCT

Chain of hALPK1-V1092A (Q96QP1 whole entry V1092A): as the sequence (Q96QP1 whole entry) above, with V1092A counted along it

Structure (SMILES)	kidney gene expression of innate immunity genes (MCP-1 (CCL-2), CCL-7, CXCL-1, CXCL-10, IL-1p, IL-6 mRNA) [1]	kidney proinflammatory gene expression (IL6, TNFa, IL-1b, CCl2, KC) [2]	plasma MCP-1 concentration ([2]; plasma 24 hours post-surgery, ELISA)	survival [2]	IC50 (hALPK1-V1092A)	IC50 [3]	IC50 (ALPK1)
C#C[C@@](C)(c1ccc(Cl)cc1)c1csc(NC(=O)NCCO)n1 [Example A0176]	dose-dependent inhibition of gene expression levels	decreased expression of kidney proinflammatory genes	improved the plasma MCP-1 levels	improved the animals' survival rate			
C#C[C@@](C)(c1ccc(OC)cc1)c1csc(NC(=O)NCCS(N)(=O)=O)n1 [Example A311, 2-(3-(4-(2-(4-methoxyphenyl)but-3-yn-2-yl)thiazol-2-yl)ureido)ethanesulfona-mide]					1160 nM	660 nM	95 nM
C#C[C@@](C)(c1ccc(Cl)cc1)c1csc(NC(=O)c2c(F)cc(N3CCNCC3)cc2F)n1 [Example C008, (S)-N-(4-(2-(4-chlorophenyl)but-3-yn-2-yl)thiazol-2-yl)-2,6-difluoro-4-(piperazin-1-yl)benzamide]		decreased expression of kidney proinflammatory genes		improved the animals' survival rate			
